In the supplement of paper PMC10331698:
± gives the standard deviation of the averaged measurements.

What was measured:
Assay in all cases: level (log10 ratio to DMSO vehicle control); higher = higher biomarker level / cell amount than vehicle control
Conditions in all cases: in DMSO
[1] = compound: CCN(CCO)S(=O)(=O)C(F)(F)C(F)(F)C(F)(F)C(F)(F)C(F)(F)C(F)(F)C(F)(F)C(F)(F)F [N-Ethyl-N-(2-hydroxyethyl)perfluorooctanesulfonamide]
Method: (§1)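 BioMAP Diversity Plus panel of 12 human primary cell co-culture systems (3C, 4H, LPS, SAg, BT, BF4T, BE3C, CASM3C, HDF3CGF, KF3CT, MyoF, Mphg). Compounds were added 1 h before stimulation and left for 24 h (MyoF 48 h; BT 72 h for soluble read-outs or 6 d for IgG). Biomarkers were read by ELISA, cytotoxicity by SRB, PBMC viability and proliferation by Alamar Blue. Each well value was divided by the mean of 8 DMSO control wells on the same plate and log10 transformed; duplicate blinded samples were tested at 4 concentrations.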

[2] = compound: OCCC(F)(F)C(F)(F)C(F)(F)C(F)(F)C(F)(F)C(F)(F)F [6:2 Fluorotelomer alcohol]
Method: as §1

[3] = compound: NCC(F)(F)C(F)(F)C(F)(F)C(F)(F)C(F)(F)C(F)(F)C(F)(F)F [1H,1H-Perfluorooctylamine]
Method: as §1

[4] = compound: FC(F)(F)C(F)(F)C(F)(F)C(F)(F)C(F)(F)CCI [1-Iodo-1H,1H,2H,2H-perfluoroheptane]
Method: as §1

[5] = compound: COC(=O)CCC(F)(F)C(F)(F)C(F)(F)C(F)(F)F [Methyl 2H,2H,3H,3H-perfluoroheptanoate]
Method: as §1

[6] = compound: O=C(O)C(F)(F)C(F)(F)C(F)(F)C(F)(F)C(F)(F)C(F)(F)C(F)(F)C(F)F [9-H-Perfluorononanoic acid]
Method: as §1

[7] = compound: FC(F)(F)C(F)(F)C(F)(F)C(F)(F)C(F)(F)C(F)(F)C(F)(F)C(F)(F)CCS [2-(Perfluorooctyl)ethanthiol]
Method: as §1

| Test System | level (log10) ([1]; 6700 nM) | level (log10) ([1]; 20000 nM) | level (log10) ([2]; 6700 nM) | level (log10) ([2]; 20000 nM) | level (log10) ([3]; 6700 nM) | level (log10) ([3]; 20000 nM) | level (log10) ([3]; 60000 nM) | level (log10) ([4]; 6700 nM) | level (log10) ([4]; 20000 nM) | level (log10) ([4]; 60000 nM) | level (log10) ([5]; 6700 nM) | level (log10) ([5]; 20000 nM) | level (log10) ([5]; 60000 nM) | level (log10) ([6]; 6700 nM) | level (log10) ([6]; 20000 nM) | level (log10) ([6]; 60000 nM) | level (log10) ([7]; 6700 nM) | level (log10) ([7]; 20000 nM) |
| --- | --- | --- | --- | --- | --- | --- | --- | --- | --- | --- | --- | --- | --- | --- | --- | --- | --- | --- |
| KF3CT:CXCL8/IL-8 | -0.0975 ± 0.012 | -0.0935 ± 0.0064 | 0 ± 0.0057 | -0.0165 ± 0.005 | -0.0205 ± 0.035 | -0.0295 ± 0.029 | -0.014 ± 0.0085 | 0.007 ± 0.035 | 0.028 ± 0.02 | 0.06 ± 0.011 | -0.0125 ± 0.019 | -0.007 ± 0.013 | 0.0175 ± 0.044 | 0.0035 ± 0.015 | 0.0085 ± 0.0078 | 0.008 ± 0.0071 | -0.026 ± 0.034 | -0.028 ± 0.037 |
| lMphg:M-CSF | -0.001 ± 0.0057 | 0.0105 ± 0.0035 | -0.0245 ± 0.0021 | -0.0245 ± 0.013 | -0.024 ± 0.033 | -0.0185 ± 0.005 | -0.0245 ± 0.0021 | -0.043 ± 0.03 | -0.0355 ± 0.012 | -0.007 ± 0.013 | -0.0325 ± 0.0078 | -0.0275 ± 0.005 | 0.0075 ± 0.022 | -0.008 ± 0.028 | -0.0035 ± 0.018 | -0.0045 ± 0.013 | -0.0075 ± 0.023 | 0.012 ± 0.0028 |
| CASM3C:Serum Amyloid A | 0.0875 ± 0.037 | 0.129 ± 0.042 | -0.013 ± 0.0028 | -0.009 ± 0.0042 | 0.0345 ± 0.036 | 0.043 ± 0.069 | 0.015 ± 0.061 | 0.011 ± 0.023 | 0.003 ± 0.0014 | -0.0195 ± 0.026 | 0.009 | -0.0065 ± 0.013 | -0.0005 ± 0.022 | -0.0295 ± 0.035 | -0.02 | 0.0435 ± 0.053 | -0.0145 ± 0.013 | 0.002 ± 0.047 |
| HDF3CGF:TIMP-1 | 0.005 ± 0.081 | -0.0605 ± 0.074 | 0.0005 ± 0.018 | 0.0095 ± 0.028 | -0.0265 ± 0.077 | -0.0335 ± 0.036 | -0.0405 ± 0.036 | -0.001 ± 0.0042 | 0.0055 ± 0.005 | -0.024 ± 0.0085 | -0.0015 ± 0.022 | 0.008 ± 0.014 | 0.014 ± 0.011 | -0.04 ± 0.0042 | 0.008 ± 0.0071 | 0.0385 ± 0.0021 | -0.017 ± 0.013 | -0.035 ± 0.0042 |
| KF3CT:CD54/ICAM-1 | 0.0415 ± 0.0078 | 0.002 ± 0.0028 | 0.011 ± 0.0057 | 0.0155 ± 0.0021 | 0 | 0.0015 ± 0.005 | 0.011 ± 0.0057 | 0.0015 ± 0.019 | -0.0045 ± 0.00071 | -0.0165 ± 0.0021 | 0.005 ± 0.0028 | 0.021 ± 0.024 | -0.01 ± 0.04 | -0.0045 ± 0.016 | -0.024 ± 0.0014 | -0.0365 ± 0.0064 | -0.001 ± 0.034 | -0.002 ± 0.0085 |
| HDF3CGF:Collagen I | 0.0835 ± 0.03 | 0.112 ± 0.0092 | -0.036 ± 0.057 | -0.0445 ± 0.08 | -0.047 | -0.0275 ± 0.0078 | 0.028 ± 0.081 | 0.003 ± 0.017 | 0.0055 ± 0.005 | -0.093 ± 0.061 | 0.0615 ± 0.071 | 0.0465 ± 0.016 | 0.051 ± 0.041 | -0.0315 ± 0.1 | 0.009 ± 0.096 | 0.015 ± 0.052 | 0.0055 ± 0.052 | 0.0125 ± 0.052 |
| HDF3CGF:CXCL9/MIG | -0.0065 ± 0.015 | -0.159 ± 0.023 | -0.0015 ± 0.023 | 0.001 ± 0.0028 | -0.006 ± 0.018 | -0.0205 ± 0.011 | -0.0115 ± 0.005 | -0.0255 ± 0.044 | -0.0445 ± 0.0092 | -0.149 ± 0.11 | 0.014 | 0.0255 ± 0.021 | -0.0225 ± 0.013 | -0.0475 ± 0.022 | -0.052 ± 0.0071 | -0.0735 ± 0.016 | -0.0085 ± 0.0078 | -0.0125 ± 0.0092 |
| HDF3CGF:MMP-1 | 0.043 ± 0.013 | 0.0065 ± 0.026 | -0.0025 ± 0.00071 | 0.0015 ± 0.00071 | -0.012 ± 0.0014 | 0.0015 ± 0.0035 | 0.013 ± 0.0014 | 0.0565 ± 0.013 | 0.078 ± 0.0085 | 0.089 ± 0.037 | 0 ± 0.011 | -0.003 ± 0.018 | -0.004 ± 0.025 | -0.047 ± 0.011 | -0.0915 ± 0.013 | -0.0745 ± 0.0078 | -0.0095 ± 0.022 | -0.0235 ± 0.044 |
